Source: US8563742B2, “Substituted aminothiazole derivatives, pharmaceutical compositions, and methods of use” (High Point Pharmaceuticals, LLC, priority 2008, dated 2013)
Like-named read-outs stand apart in the source and are kept apart here. Where no end group is shown, it is not given here.

Legend:
human MC-4R = target: T1, human MC-4R (Homo sapiens, UniProt P32245); assay: Biological Assay: inhibition of AgRP functional interaction with MC-4R in presence of αMSH (cAMP production); type: cell-based; conditions: HEK293 cells expressing human MC-4R, AgRP83-132 and αMSH present
T1 construct: expressed in transfected cells
Outline: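 HEK293 cells stably expressing human MC-4R (20,000/well) in EBSS/HEPES pH 7.4 with 0.5 mM IBMX. Compounds preincubated 30 min at room temperature with human AgRP83-132, then cells added and stimulated with αMSH 30 min at 37 °C. Intracellular cAMP measured after lysis; inhibition of AgRP seen as increased cAMP.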

[1] = Stability in Liver Microsomes (monkey); type: in vitro ADME; conditions: 1 μM, 0.5 mg protein/mL, NADPH, 60 minutes, 37° C., pH 7.4
Procedure: (§1) Various compounds were tested for their stability in human, monkey, dog, rat, and mouse liver microsomes. At a final concentration of 1 μM, compounds were incubated with either human, monkey, dog, rat, or mouse liver microsomes (0.5 mg protein/mL) in the presence of an NADPH-solution for 60 minutes at 37° C., pH 7.4 in phosphate buffer. Incubations were performed in duplicate. Reactions were terminated by the addition of methanol. The incubation solution was vortexed and transferred into a 96-well plate. The plate was sealed and centrifuged at approximately 3500 rpm for approximately 10 minutes. After centrifugation, the plate was loaded into 96-well plate autosampler and analyzed by LC/MS. Values are reported as percent of compound remaining after 1 hour.

[2] = Stability in Liver Microsomes (dog); type: in vitro ADME; conditions: 1 μM, 0.5 mg protein/mL, NADPH, 60 minutes, 37° C., pH 7.4
Procedure: as §1

[3] = rat, in vivo, po, 5 mg/kg; for Plasma:Brain Ratio: male, Sprague Dawley, 2 h
[4] = Stability in Liver Microsomes (rat); type: in vitro ADME; conditions: 1 μM, 0.5 mg protein/mL, NADPH, 60 minutes, 37° C., pH 7.4
Procedure: as §1

[5] = Stability in Liver Microsomes (mouse); type: in vitro ADME; conditions: 1 μM, 0.5 mg protein/mL, NADPH, 60 minutes, 37° C., pH 7.4
Procedure: as §1

[6] = Stability in Liver Microsomes (human); type: in vitro ADME; conditions: 1 μM, 0.5 mg protein/mL, NADPH, 60 minutes, 37° C., pH 7.4
Procedure: as §1

[7] = Pharmacokinetic screening in rats (plasma and brain); conditions: rat, 5 mg/kg PO; for concentration at 2 h: male, Sprague Dawley, po, 5 mg/kg, 2 hour time point; for Brain - 24 hours AUC (h * ng/g): 24 hour study
in vivo = conditions: male, Sprague Dawley, rat, po, 5 mg/kg
[8] = tested on: adult male Sprague Dawley rats; assay: Feeding Study (icv AgRP, food intake and body weight); type: in vivo, Rat
Procedure: 27 adult male Sprague Dawley rats (Charles River Laboratories) were implanted with right lateral cerebral ventricular cannulas and allowed to recover for one week. After one week, animals were then randomized into 4 groups that were matched for food intake and body weight: water gavage-icv saline (n=6); Example 7 gavage-icv saline (n=7); water gavage-icv AgRP (n=7); Example 7 gavage-icv AgRP (n=7). Water or Example 7 (30 mg/kg) was administered at by oral gavage followed by icv injection of either saline or 0.2 nmol human AgRP 83-132. AgRP stimulated food intake and body weight gain over the next 24 h compared to saline controls. Both of these effects of AgRP were blocked by injection administration of Example 7.
On day 2 a second dose of Example 7 (30 mg/kg) or water was administered by oral gavage. On day 3, water or Example 7 (30 mg/kg) was administered for the third and final time by oral gavage followed by icv injection of either saline or 0.2 nmol human AgRP83-132. Food intake and body weight were monitored daily and animals were sacrificed on day 5.

[9] = read-out: Average EC50 (nM) in Biological Assay
[10] = plasma, Plasma - 2 hours (ng/mL)
[11] = 0.2 nmol icv, water gavage, next 24 h

T1 sequence (P32245 whole entry): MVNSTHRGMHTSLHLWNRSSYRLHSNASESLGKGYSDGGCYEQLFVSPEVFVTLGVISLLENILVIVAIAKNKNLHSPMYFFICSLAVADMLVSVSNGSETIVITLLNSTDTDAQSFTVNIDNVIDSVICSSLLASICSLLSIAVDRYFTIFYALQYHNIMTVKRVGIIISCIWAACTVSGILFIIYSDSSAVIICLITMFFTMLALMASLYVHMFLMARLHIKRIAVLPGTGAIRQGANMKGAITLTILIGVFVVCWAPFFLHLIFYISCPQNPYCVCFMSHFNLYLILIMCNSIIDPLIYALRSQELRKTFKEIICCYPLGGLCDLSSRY

Molecule | EC50 (human MC-4R; [9]) | Stability in Liver Microsomes (% remaining after 1 hour incubation) Monkey [1] | Stability in Liver Microsomes (% remaining after 1 hour incubation) Dog [2] | Plasma - 2 hours [3] | Stability in Liver Microsomes (% remaining after 1 hour incubation) Rat [4] | Stability in Liver Microsomes (% remaining after 1 hour incubation) Mouse [5] | Stability in Liver Microsomes (% remaining after 1 hour incubation) Human [6] | concentration at 2 h [7, 10] | concentration at 2 h (in vivo; Brain - 2 hours (ng/g)) | concentration at 2 h (in vivo; Plasma - 2 hours (ng/mL)) | Plasma:Brain Ratio [3] | concentration at 2 h ([7]; brain, Brain - 2 hours (ng/g)) | Brain - 24 hours AUC (h * ng/g) [7] | cumulative weight gain over the entire period, icv AGRP + H2O ([8]; 0.2 nmol icv days 1 and 3, water gavage, to day 5) | body weight gain after icv AgRP compared to saline controls [8, 11] | food intake after icv AgRP compared to saline controls [8, 11] | EC50 (human MC-4R; Average EC50 (nM) in Biological Assay)
Cc1ccc(CN(CCC(=O)[O-])c2nc([C@H]3CC[C@H](C(C)C)CC3)cs2)s1.[Na+] [Example 9, Sodium; 3-[[4-(4-trans-isopropyl-cyclohexyl)-thiazol-2-yl]-(5-methyl-thiophen-2-ylmethyl)-amino]-propionate] | 274 nM | 74% | 92% | 3062 ng/mL | 66% | 69% | 82% | – | – | – | – | – | – | – | – | – | –
Cc1ccc(CN(CCC(=O)O)c2nc([C@H]3CC[C@H](c4ccccc4)CC3)cs2)s1 [Example 38, Sodium; 3-{(5-methyl-thiophen-2-ylmethyl)-[4-(trans-4-phenyl-cyclohexyl)-thiazol-2-yl]-amino}-propionate] | 145 nM | 70% | 93% | – | 90% | 99% | 71% | 8400 ng/mL | – | – | – | – | ++++ (values above 20,000 h*ng/g) | – | – | – | –
Cc1cc(CN(CCC(=O)O)c2nc(C3CCC(C(C)(C)C)CC3)cs2)c(C)s1 (stereo not drawn) [Example 25, 3-[[4-(4-tert-Butyl-cyclohexyl)-thiazol-2-yl]-(2,5-dimethyl-thiophen-3-ylmethyl)-amino]-propionic acid] | 80 nM | 77% | 69% | – | 69% | 81% | 99% | 10500 ng/mL | – | – | – | 552 ng/g | +++ (values between 20,000 and 10,000 h*ng/g) | – | – | – | –
AgRP: AgRP83-132 (human, Phoenix Pharma, cat no. 003-53), Agouti related protein fragment given icv (SSRRCVRLHESCLGQQVPCCDPCATCYCRFFNAFCYCRKLGTAMNPCSRT; ends and bridges not checked; cysteine pairing not given here; UniProt O00253 83-132, looked up, fragment) [reference compound] | – | – | – | – | – | – | – | – | – | – | – | – | – | above 30 grams | stimulated | stimulated | –
Cc1ccc(CN(CCC(=O)O)c2nc(C3CCC(F)(F)CC3)cs2)s1 [Example 23, Sodium; 3-[[4-(4,4-difluoro-cyclohexyl)-thiazol-2-yl]-(5-methyl-thiophen-2-ylmethyl)-amino]-propionate] | 366 nM | 56% | 94% | – | 15% | 60% | 71% | – | – | – | – | – | – | – | – | – | –
Cc1cc(CN(CCC(=O)O)c2nc(C3CCC(C(C)C)CC3)cs2)c(C)s1 (stereo not drawn) [Example 26, 3-{(2,5-Dimethyl-thiophen-3-ylmethyl)-[4-(4-isopropyl-cyclohexyl)-thiazol-2-yl]-amino}-propionic acid] | – | 67% | 72% | – | 66% | 71% | 79% | 6260 ng/mL | – | – | – | 942 ng/g | +++ (values between 20,000 and 10,000 h*ng/g) | – | – | – | 276 nM

The next lines start with results.

EC50 (human MC-4R; [9]) | Stability in Liver Microsomes (% remaining after 1 hour incubation) Monkey [1] | Stability in Liver Microsomes (% remaining after 1 hour incubation) Dog [2] | Plasma - 2 hours [3] | Stability in Liver Microsomes (% remaining after 1 hour incubation) Rat [4] | Stability in Liver Microsomes (% remaining after 1 hour incubation) Mouse [5] | Stability in Liver Microsomes (% remaining after 1 hour incubation) Human [6] | concentration at 2 h [7, 10] | concentration at 2 h (in vivo; Brain - 2 hours (ng/g)) | concentration at 2 h (in vivo; Plasma - 2 hours (ng/mL)) | Plasma:Brain Ratio [3] | concentration at 2 h ([7]; brain, Brain - 2 hours (ng/g)) | Molecule | Brain - 24 hours AUC (h * ng/g) [7] | cumulative weight gain over the entire period, icv AGRP + H2O ([8]; 0.2 nmol icv days 1 and 3, water gavage, to day 5) | body weight gain after icv AgRP compared to saline controls [8, 11] | food intake after icv AgRP compared to saline controls [8, 11] | EC50 (human MC-4R; Average EC50 (nM) in Biological Assay)
76 nM | – | – | – | – | – | – | – | 536 ng/g | 1040 ng/mL | 1.9:1 | – | Cc1ccc(CN(CCC(=O)[O-])c2nc(C3(C)CCC(C)CC3)cs2)s1.[Na+] (stereo not drawn) [Example 46, Sodium; 3-[[4-(1,4-dimethyl-cyclohexyl)-thiazol-2-yl]-(5-methyl-thiophen-2-ylmethyl)-amino]-propionate] | – | – | – | – | –
191 nM | 83% | 99% | – | 86% | 87% | 92% | – | – | – | – | – | Cc1ccc(CN(CCC(=O)[O-])c2nc(C3CCC(C4CCCCC4)CC3)cs2)s1.[Na+] (stereo not drawn) [Example 60, Sodium; 3-[(4-bicyclohexyl-4-yl-thiazol-2-yl)-(5-methyl-thiophen-2-ylmethyl)-amino]-propionate] | – | – | – | – | –
– | – | – | – | – | – | – | – | 1240 ng/g | 2460 ng/mL | 2.0:1 | – | C[C@H]1CC[C@H](Oc2ccc(-c3csc(N(CCC(=O)[O-])Cc4cccs4)n3)cc2)CC1.[Na+] [Reference Compound C, Sodium 3-({4-[4-(trans-4-methyl-cyclohexyloxy)-phenyl]-thiazol-2-yl}-thiophen-2-ylmethyl-amino)-propionate, reference compound] | – | – | – | – | –
219 nM | 85% | 36% | – | 67% | 90% | 61% | – | – | – | – | – | Cc1cc(CN(CCC(=O)[O-])c2nc(C3CCC(c4ccccc4)CC3)cs2)c(C)s1.[Na+] (stereo not drawn) [Example 40, Sodium; 3-{(2,5-dimethyl-thiophen-3-ylmethyl)-[4-(4-phenyl-cyclohexyl)-thiazol-2-yl]-amino}-propionate] | – | – | – | – | –
– | 2% | 2% | – | 54% | 52% | 40% | 3850 ng/mL | – | – | – | 1140 ng/g | CC(C)c1ccc(-c2csc(N(CCC(=O)[O-])Cc3cccs3)n2)cc1.[Na+] [Reference Compound A, Sodium 3-{[4-(4-isopropyl-phenyl)-thiazol-2-yl]-thiophen-2-ylmethyl-amino}-propionate, reference compound] | + (values less than 5,000 h*ng/g) | – | – | – | –
